Results from US20210239681A1, “COMPOSITIONS AND METHODS FOR […] OF […]-BASED IMMUNOTHERAPEUTICS” (ADVAXIS, INC., priority 2018, published 2021).

Columns and labels:
Assay type in all cases: cell-based, human
10mer specific T cells = assay: Co-culture of THP-1 with 10mer specific T cells, cytokine production; parameters: IFNγ / IL-10 / IL-13 / IL-1β / IL-2 / IL-5 / IL-6 / TNF-α: unit not given here; conditions: for IFNγ production, with 10mer specific T cells: Listeria MOI of 10, optical density
Text: (§1) Analysis Kits and Reagents: Analysis of cytokine concentrations in culture medium used the U-plex assay kits from Meso Scale Discovery. Expression of T cell receptors specific for E7 peptide bound to HLA-A*02:01 was detected using HLA-A*02:01/peptide tetramers from MBL International (Woburn, Mass.).
(§2) There were several possible explanations for the muted response with THP-1 cells infected with ADSX11: including failure of THP-1 cells to process the 10mer epitope from full length E7 protein, failure of the THP-1 cells to present the processed 10mer E7 peptide on HLA-A*02:01, insufficient incubation of the infected cells to allow synthesis of the E7 protein and accumulation of the MHC/peptide complex on the cell surface, and/or an inhibitory effect of gentamicin. A culture of T cells specific for the 9mer epitope was used as well as a new culture of 10mer specific T cells. The THP-1 cells were infected as before with XFL7 or ADXS11-001 at an MOI of 10. After treatment with gentamicin for one hour, the cells were cultured overnight in the absence of gentamicin. The next day the infected cells were collected and co-cultured with 9mer or 10mer specific T cells. These co-cultures were set up in standard X-VIVO 15 and X-VIVO 15 without gentamicin or phenol red. The co-cultures were incubated overnight before collecting medium for cytokine analysis. The medium was tested for IFNγ concentrations and optical density. […] In addition, the 10mer specific T cells recognized ADXS11-001 infected THP-1 when there was no gentamicin in the medium.
(§3) To further explore the importance of the overnight incubation of infected THP-1, THP-1 cells infected overnight were compared to THP-1 cells infected for 2 hours. T cells specific for 9mer and 10mer peptides were co-cultured with each of the THP-1 cells and with uninfected or peptide exposed THP-1. As before, medium was collected after an overnight co-culture and cytokines were measured.
(§4) Optimization of infection time required for E7 presentation. THP-1 infected and cultured overnight compared to THP-1 infected for 2 hours and used after gentamicin treatment. Both 9-mer specific T cells and 10-mer specific T cells used. Assays were performed using X-VIVO 15 medium without gentamicin. The following cytokines were measured: IFNγ, IL-1β, IL-2, IL-10, IL-12p70, IL-13, IL-5, IL-6, TNFα.

T cells = assay: Intracellular cytokine staining of T cells; conditions: Brefeldin A, FIG. 9
Method: (§5) To identify cytokines that can be used to measure potency of a Listeria-based therapeutic the following tests were performed. Intracellular cytokine staining was used to detect T cells specificity. THP-1 were incubated with peptide overnight, mixed with T cells from above and centrifuged. The collected cells were then co-cultured at 37° C. for 1 hour. Brefeldin A was then added and the cells were co-cultured for another 4 hours. Brefeldin A inhibits secretion and permits analysis by flow cytometry. Cell were then stained to identify dead cells and CD8+ cells. The cell were then fixed and stained for IFNγ (using fix and permeabilization buffer from eBioscience/Invitrogen).

[1] = test system: E7 (11-20) specific T cells; assay: Initial THP-1 / T cell co-culture cytokine production (T cell culture with 6% E7 (11-20) specific T cells); parameters: IFNγ / TNF-α / IL-10 / IL-12p70 / IL-13 / IL-1β / IL-2 / IL-4 / IL-6 / IL-8: unit not given here; conditions: T cells and THP-1 incubated with peptide one hour; overnight co-culture
Method: as §1
Infection of THP-1: The THP-1 cell line was infected with either ADXS11-001 or XFL7 by incubating 10^6 cells with dilutions of bacteria in a 1 mL volume of RPMI 1640 10% FBS. Incubation with bacteria was at 37° C., 5% CO2 for the indicated times, then extracellular bacteria were eliminated by washing and incubation in the presence of 50 μg/mL gentamicin for 1 hour at 37° C. After incubation with gentamicin the cells were washed again and resuspended to the desired cell concentration.
(§6) T cell cytokine expression analysis. An initial experiment using THP-1 as antigen presenting cells was performed using a T cell culture containing 6% E7 (11-20) specific T cells based upon staining with HLA-A*02:01/peptide tetramer. THP-1 cells were infected as described using two different concentrations of bacteria and then co-cultured with the T cells. Controls included uninfected THP-1 cells and THP-1 cells incubated with (exposed to) either the 9mer or 10mer peptide for one hour. After an overnight co-culture, medium was collected for analysis of cytokines.

THP-1 cells [2] = assay: Cytokine production by THP-1 in the absence of T cells; conditions: Without gentamicin; Listeria MOI of 10; optical density
THP-1 cells [3] = assay: as above; parameters: IL-6: unit not given here
Method: as §1
Infection of THP-1: The THP-1 cell line was infected with either ADXS11-001 or XFL7 by incubating 10^6 cells with dilutions of bacteria in a 1 mL volume of RPMI 1640 10% FBS. […] After incubation with gentamicin the cells were washed again and resuspended to the desired cell concentration.
as §6, §3
Titration studies with different multiplicity of infection (MOI). THP cells were infected for 2 hours with 3 different dilutions (MOI) of Listeria. Infected or uninfected THP cells were then cultured overnight for 24 hours before co-culturing the T cells. Cells were co-cultured overnight before cytokine analysis.

PBMC = assay: Cytokine release by donor PBMC cultured with peptide; parameters: unit not given beside the values; conditions: release on antigen
Method: Peripheral blood mononuclear cells (PBMCs) samples were collected from three human HLA-A*02:01 donors: 358, 213, and 224. The peripheral blood mononuclear cells (PBMCs) were cultured with one of two E7 peptides: […] (9mer or 1T; SEQ ID NO: 100) or […] (10mer or 2T; SEQ ID NO: 101). After 10 days culture, the PBMCs were tested for E7 peptide binding staining and cytokine release.

THP-1 cells [4] = assay: Intracellular cytokine staining of THP-1 cells; conditions: FIGS. 3A-3C, FIG. 10
Method: as §5
Intracellular cytokine staining of THP-1 cells.

9mer specific T cells = assay: Co-culture of THP-1 with 9mer specific T cells, cytokine production; parameters: IFNγ / IL-10 / IL-12p70 / IL-13 / IL-1β / IL-2 / IL-5 / IL-6 / TNF-α: unit not given here; conditions: for IFNγ production, with 9mer specific T cells: Listeria MOI of 10, optical density
Text: as §1, §2, §3, §4

[5] = THP-1 incubated with peptide, absence of T cells
[6] = 9mer T cells + peptide exposed THP-1, overnight co-culture
[7] = 10mer T cells + peptide exposed THP-1, overnight co-culture

In the case of gentamicin, the “effect of gentamicin in the culture medium on antigen presentation” value (10mer specific T cells; Listeria-based infection of THP-1, 50 μg/mL) is reported as “inhibits expression of E7 or antigen presentation”.

For YMLDLQPET [9mer], the “IFNγ in T cells after stimulation with peptide” value (T cells) was “detected”, the IFNγ [1] was 1508.2 and the IL-1β [1] was 1.0. For the same substance, the IL-2 [1] was 3.7, the IL-4 [1] was 0.2 and the IL-6 [1] was 4.2. For the same substance, the IL-8 [1] was 405.7, the IL-10 [1] was 2.1 and the IL-12p70 [1] was “<LLOD”. The IL-13 [1] was 120.3, the TNF-α [1] was 57.1 and the “IFNγ production, THP-1 alone” value (THP-1 cells [2]) was 0.059. For the same substance, the “IFNγ production, THP-1 alone” value (THP-1 cells [3]; 50 μg/mL gentamicin, Listeria MOI of 10, optical density) was 0.064, the IFNγ (THP-1 cells [3]; THP-1 alone, peptide exposed) was “<LLOD” and the IL-1β (THP-1 cells [3]; THP-1 alone, peptide exposed) was “<LLOD”. The IL-2 (THP-1 cells [3]; THP-1 alone, peptide exposed) was “<LLOD”, the IL-5 (THP-1 cells [3]; THP-1 alone, peptide exposed) was “<LLOD” and the IL-6 (THP-1 cells [3]; THP-1 alone, peptide exposed) was “<LLOD”. The IL-10 (THP-1 cells [3]; THP-1 alone, peptide exposed) was “<LLOD”, the IL-12p70 (THP-1 cells [3]; THP-1 alone, peptide exposed) was “<LLOD” and the IL-13 (THP-1 cells [3]; THP-1 alone, peptide exposed) was “<LLOD”. For the same substance, the TNF-α (THP-1 cells [3]; THP-1 alone, peptide exposed) was 0, the IFNγ (THP-1 cells [3]; [5]) was “<LLOD” and the IL-1β (THP-1 cells [3]; [5]) was 0.0. For the same substance, the IL-2 (THP-1 cells [3]; [5]) was “<LLOD”, the IL-4 (THP-1 cells [3]; [5]) was “<LLOD” and the IL-6 (THP-1 cells [3]; [5]) was “<LLOD”. For the same substance, the IL-8 (THP-1 cells [3]; [5]) was 7.3, the IL-10 (THP-1 cells [3]; [5]) was “<LLOD” and the IL-12p70 (THP-1 cells [3]; [5]) was “<LLOD”. The IL-13 (THP-1 cells [3]; [5]) was “<LLOD”, the TNF-α (THP-1 cells [3]; [5]) was “<LLOD” and the “IFNγ Mean” value (PBMC; donor 213 PBMC cultured with 1T peptide) was 242.6. The “IFNγ Mean” value (PBMC; donor 358 PBMC stimulated with 1T) was 1642.7, the “IFNγ Mean” value (PBMC; donor 358 PBMC stimulated with 2T) was 352.4 and the “Basal IFNγ in THP-1 cells after stimulation with peptide” value (THP-1 cells [4]) was “not detectable”. The “IFNγ production, with 9mer specific T cells” value (9mer specific T cells; 50 μg/mL gentamicin) was 0.177, the IFNγ (9mer specific T cells; [6]) was 4713 and the IL-1β (9mer specific T cells; [6]) was 0. For the same substance, the IL-2 (9mer specific T cells; [6]) was 18, the IL-5 (9mer specific T cells; [6]) was 0 and the IL-6 (9mer specific T cells; [6]) was 13. For the same substance, the IL-10 (9mer specific T cells; [6]) was 1, the IL-12p70 (9mer specific T cells; [6]) was 0 and the IL-13 (9mer specific T cells; [6]) was 3. The TNF-α (9mer specific T cells; [6]) was 74, the “IFNγ production, with 9mer specific T cells” value (9mer specific T cells; Without gentamicin) was 0.117 and the “IFNγ production, with 10mer specific T cells” value (10mer specific T cells; 50 μg/mL gentamicin) was 0.063. For the same substance, the IFNγ (10mer specific T cells; [7]) was 103, the IL-1β (10mer specific T cells; [7]) was “<LLOD” and the IL-2 (10mer specific T cells; [7]) was “<LLOD”. The IL-5 (10mer specific T cells; [7]) was “<LLOD”, the IL-6 (10mer specific T cells; [7]) was “<LLOD” and the IL-10 (10mer specific T cells; [7]) was 0. The IL-12p70 (10mer specific T cells; [7]) was “<LLOD”, the IL-13 (10mer specific T cells; [7]) was “<LLOD” and the TNF-α (10mer specific T cells; [7]) was “<LLOD”. For the same substance, the “IFNγ production, with 10mer specific T cells” value (10mer specific T cells; Without gentamicin) was 0.062.
